Test results reported in patent US5096923A, “Novel squalene synthetase inhibitors” (Merck & Co., Inc., priority 1990, dated 1992).
Converted amounts (≈) assume the structure as drawn.

How the values were obtained:
Fus. oxysporum MF4014 = assay: Antifungal microtiter inhibitor dilution assay (filamentous fungi), Fus. oxysporum; type: cell-based; settings: Fusarium oxysporum, 42 hours, 28° C., read-out: Minimum Inhibitory Concentration
Protocol: (§1) The compounds are particularly active towards filamentous fungi and yeasts including Candida albicans and Crypt neoformans. The sensitivity of filamentous fungi and yeast was determined using inhibitor dilution assays in microtiter format. The compounds were dissolved in DMSO at 2 mg/ml and serially diluted in 0.1M phosphate buffer, pH 7.0 in the microtiter dish from 100 to 0.006 μg/ml. A standardized spore suspension for testing the filamentous fungi was prepared by inoculating Antibiotic Medium #3 containing 1.5% agar with spores such that 1.5×10^3 colony forming units were added per well. The microtiter wells were filled with 50 μl of buffer containing compound and 50 μl of inoculated medium. The sensitivity of yeasts was determined by inoculating yeast nitrogen base containing 1% dextrose (YNB/G) with aliquots of an overnight yeast culture grown in yeast morphology (YM) media at 35° C. and diluting in YNB/G to yield a final concentration of 1.5-7.5×10^3 colony forming units/well. One hundred fifty μl of inoculated media was added per well. To test the sensitivity of yeast, compound was solubilized in 10 percent aqueous DMSO at 2.56 mg/ml. The compound was diluted serially in YNB/G from 128 to 0.06 μg/ml. The wells were filled with 150 μl of drug containing media. […]

Crypt. neoformans MY1051 = assay: Antifungal microtiter inhibitor dilution assay (yeast), Crypt. neoformans; type: cell-based; settings: Cryptococcus neoformans, 24 hours, 28° C., read-out: Minimum Inhibitory Concentration
Protocol: as §1

Coch. miyabeanus MF4626 = assay: Antifungal microtiter inhibitor dilution assay (filamentous fungi), Coch. miyabeanus; type: cell-based; settings: Bipolaris oryzae, MF4626, 42 h, read-out: Minimum Inhibitory Concentration
Protocol: as §1

A. flavus MF383 = assay: Antifungal microtiter inhibitor dilution assay (filamentous fungi), A. flavus; type: cell-based; settings: Aspergillus flavus, 42 hours, 28° C., read-out: Minimum Inhibitory Concentration
Protocol: as §1

C. parapsilosis MY1010 = assay: Antifungal microtiter inhibitor dilution assay (yeast), C. parapsilosis; type: cell-based; settings: Lodderomyces parapsilosis, 24 hours, 28° C., read-out: Minimum Inhibitory Concentration
Protocol: as §1

Pen. italicum MF2819 = assay: Antifungal microtiter inhibitor dilution assay (filamentous fungi), Pen. italicum; type: cell-based; settings: Penicillium italicum, 42 hours, 28° C., read-out: Minimum Inhibitory Concentration
Protocol: as §1

A. fumigatus MF4839 = assay: Antifungal microtiter inhibitor dilution assay (filamentous fungi), A. fumigatus; type: cell-based; settings: Aspergillus fumigatus, 42 hours, 28° C., read-out: Minimum Inhibitory Concentration
Protocol: as §1

C. tropicalis MY1012 = assay: Antifungal microtiter inhibitor dilution assay (yeast), C. tropicalis; type: cell-based; settings: Candida tropicalis, 24 hours, 28° C., read-out: Minimum Inhibitory Concentration
Protocol: as §1

A. niger MF442 = assay: Antifungal microtiter inhibitor dilution assay (filamentous fungi), A. niger; type: cell-based; settings: Aspergillus niger, 42 hours, 28° C., read-out: Minimum Inhibitory Concentration
Protocol: as §1

C. albicans MY1055 = assay: Antifungal microtiter inhibitor dilution assay (yeast), C. albicans; type: cell-based; settings: Candida albicans, 24 hours, 28° C., read-out: Minimum Inhibitory Concentration
Protocol: as §1

Squalene Synthetase = biological target: T1, Squalene Synthetase (Rattus norvegicus, UniProt Q02769); assay: Squalene synthetase assay (rat liver microsomes, [4-14C]farnesyl-pyrophosphate); type: biochemical; settings: 30° C., 20 minutes, read-out: Squalene Synthetase ID50
T1 construct: The livers from these rats were homogenized in 5 volumes (ml/g) of ice cold 50 mM HEPES; from tissue; host or cells: rat liver microsomes (male Charles River CD rats fed 0.1% lovastatin for 4 days)
T1 sequence (Q02769 1-416): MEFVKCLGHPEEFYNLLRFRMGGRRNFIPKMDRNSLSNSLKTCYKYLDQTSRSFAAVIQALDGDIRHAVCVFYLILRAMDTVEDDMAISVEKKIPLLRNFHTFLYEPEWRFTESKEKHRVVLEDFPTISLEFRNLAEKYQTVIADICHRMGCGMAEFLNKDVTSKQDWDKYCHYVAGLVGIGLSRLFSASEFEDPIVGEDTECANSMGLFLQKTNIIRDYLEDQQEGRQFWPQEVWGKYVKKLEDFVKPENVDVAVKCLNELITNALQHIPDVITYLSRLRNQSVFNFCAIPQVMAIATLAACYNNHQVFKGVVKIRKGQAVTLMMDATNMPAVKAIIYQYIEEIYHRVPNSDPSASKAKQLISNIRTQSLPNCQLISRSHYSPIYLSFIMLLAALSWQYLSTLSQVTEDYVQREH
Protocol: The intrinsic squalene synthetase inhibitory activity of representative compounds of this invention was measured by the standard in vitro protocol described below:
Male, Charles River CD rats (120 to 150 g) were fed a diet containing 0.1% lovastatin for 4 days. The livers from these rats were homogenized in 5 volumes (ml/g) of ice cold 50 mM HEPES (4-(2 -hydroxyethyl)-1-piperazine-ethanesulfonic acid), 5 mM EDTA(ethylenediaminetetraacetic acid) pH 7.5 with a Potter-Elvehjem type tissue grinder. The homogenate was centrifuged twice at 20,000×g for 15 minutes at 4° C., discarding the pellet each time. The supernatant was then centrifuged at 100,000×g for 1 hour at 4° C. The resulting microsomal pellet was resuspended in a volume of the above homogenizing buffer equal to one-fifth the volume of the original homogenate. This microsomal preparation has a protein concentration of about 7 mg/ml. The microsomal suspensions were stored in aliquots at -70° C. Squalene synthetase activity in these aliquots is stable for at least several months.
Prenyl transferase was purified to use in the enzymatic synthesis of radiolabelled farnesyl pyrophosphate. Prenyl transferase was assayed by the method of Rilling (Methods in Enzymology 110, 125-129 (1985)) and a unit of activity is defined as the amount of enzyme that will produce 1 μmole of farnesyl pyrophosphate per minute at 30° C. in the standard assay. […]

## C=C(CCC12OC(C(=O)OC)C(O)(C(=O)OC)C(C(=O)OC)(O1)C(OC(=O)C=CC(C)CC(C)CC)C2O)C(OC(C)=O)C(C)Cc1ccccc1 (centres unmarked) [Compound B]
Fus. oxysporum MF4014
  MIC: > 100 µg/mL
Crypt. neoformans MY1051
  MIC: 1 µg/mL (≈ 1.36 µM)
Coch. miyabeanus MF4626
  MIC: 1.6 µg/mL (≈ 2.18 µM)
A. flavus MF383
  MIC: 6.2 µg/mL (≈ 8.46 µM)
C. parapsilosis MY1010
  MIC: 8 µg/mL (≈ 10.9 µM)
Pen. italicum MF2819
  MIC: 6.2 µg/mL (≈ 8.46 µM)
A. fumigatus MF4839
  MIC: 6.2 µg/mL (≈ 8.46 µM)
C. tropicalis MY1012
  MIC: 4 µg/mL (≈ 5.46 µM)
A. niger MF442
  MIC: 25 µg/mL (≈ 34.1 µM)
C. albicans MY1055
  MIC: 8 µg/mL (≈ 10.9 µM)
Squalene Synthetase
  IC50: 5 µM
